Measured values: PMC4716540 (British Journal of Cancer, 2015)
“Also recorded” adds a separate entry of the source.

Test system: patients with confirmed relapsed/refractory MM, CLL, or NHL
Assay: Phase I safety and tolerability: adverse events, DLT, MTD, RP2D
Format: in vivo, human

CCc1c(O)cc(O)c(C(=O)c2ccc(OCCN3CCOCC3)c(OC)c2)c1CC(=O)N(CCOC)CCOC [KW-2478]
Abdominal pain (any AE) (99 mg m^–2 (n=4)): 1 (25.0) No. of patients (%)
Acne (any AE) (99 mg m^–2 (n=4)): 0 No. of patients (%)
Anaemia (any AE) (99 mg m^–2 (n=4)): 0 No. of patients (%)
Anorexia (any AE) (99 mg m^–2 (n=4)): 0 No. of patients (%)
Back pain (any AE) (99 mg m^–2 (n=4)): 2 (50.0) No. of patients (%)
Diarrhoea (any AE) (99 mg m^–2 (n=4)): 2 (50.0) No. of patients (%)
Dizziness (any AE) (99 mg m^–2 (n=4)): 0 No. of patients (%)
Fatigue (any AE) (99 mg m^–2 (n=4)): 2 (50.0) No. of patients (%)
Haemoglobin decreased (any AE) (99 mg m^–2 (n=4)): 0 No. of patients (%)
Hair disorder (any AE) (99 mg m^–2 (n=4)): 0 No. of patients (%)
Headache (any AE) (99 mg m^–2 (n=4)): 2 (50.0) No. of patients (%)
Herpes simplex infection (any AE) (99 mg m^–2 (n=4)): 0 No. of patients (%)
Hypertension (any AE) (99 mg m^–2 (n=4)): 1 (25.0) No. of patients (%)
LRTI (any AE) (99 mg m^–2 (n=4)): 0 No. of patients (%)
Musculoskeletal chest pain (any AE) (99 mg m^–2 (n=4)): 1 (25.0) No. of patients (%)
Nausea (any AE) (99 mg m^–2 (n=4)): 1 (25.0) No. of patients (%)
Oral herpes (any AE) (99 mg m^–2 (n=4)): 1 (25.0) No. of patients (%)
Rhinitis (any AE) (99 mg m^–2 (n=4)): 0 No. of patients (%)
Serious AE (99 mg m^–2 (n=4)): 2 (50) No. of patients (%)
Treatment-related AE (99 mg m^–2 (n=4)): 3 (75.0) No. of patients (%)
Vomiting (any AE) (99 mg m^–2 (n=4)): 1 (25.0) No. of patients (%)
AE (treatment-emergent) (132 mg m^–2 (n=6)): 6 (100.0) No. of patients (%)
Abdominal pain (any AE) (132 mg m^–2 (n=6)): 2 (33.3) No. of patients (%)
Acne (any AE) (132 mg m^–2 (n=6)): 0 No. of patients (%)
Anaemia (any AE) (132 mg m^–2 (n=6)): 0 No. of patients (%)
Anorexia (any AE) (132 mg m^–2 (n=6)): 1 (16.7) No. of patients (%)
Back pain (any AE) (132 mg m^–2 (n=6)): 1 (16.7) No. of patients (%)
Diarrhoea (any AE) (132 mg m^–2 (n=6)): 3 (50.0) No. of patients (%)
Dizziness (any AE) (132 mg m^–2 (n=6)): 1 (16.7) No. of patients (%)
Fatigue (any AE) (132 mg m^–2 (n=6)): 1 (16.7) No. of patients (%)
Haemoglobin decreased (any AE) (132 mg m^–2 (n=6)): 2 (33.3) No. of patients (%)
Hair disorder (any AE) (132 mg m^–2 (n=6)): 0 No. of patients (%)
Headache (any AE) (132 mg m^–2 (n=6)): 4 (66.7) No. of patients (%)
Herpes simplex infection (any AE) (132 mg m^–2 (n=6)): 0 No. of patients (%)
Hypertension (any AE) (132 mg m^–2 (n=6)): 2 (33.3) No. of patients (%)
LRTI (any AE) (132 mg m^–2 (n=6)): 1 (16.7) No. of patients (%)
Musculoskeletal chest pain (any AE) (132 mg m^–2 (n=6)): 2 (33.3) No. of patients (%)
Nausea (any AE) (132 mg m^–2 (n=6)): 2 (33.3) No. of patients (%)
Oral herpes (any AE) (132 mg m^–2 (n=6)): 0 No. of patients (%)
Rhinitis (any AE) (132 mg m^–2 (n=6)): 4 (66.7) No. of patients (%)
Serious AE (132 mg m^–2 (n=6)): 3 (50.0) No. of patients (%)
Treatment-related AE (132 mg m^–2 (n=6)): 5 (83.3) No. of patients (%)
Vomiting (any AE) (132 mg m^–2 (n=6)): 3 (50.0) No. of patients (%)
Number of treatment-related AEs per patient (average) (176 mg m^–2): 9.2
AE (treatment-emergent) (176 mg m^–2 (n=7)): 7 (100.0) No. of patients (%)
Abdominal pain (any AE) (176 mg m^–2 (n=7)): 0 No. of patients (%)
Acne (any AE) (176 mg m^–2 (n=7)): 0 No. of patients (%)
Anaemia (any AE) (176 mg m^–2 (n=7)): 3 (42.9) No. of patients (%)
Anorexia (any AE) (176 mg m^–2 (n=7)): 2 (28.6) No. of patients (%)
Back pain (any AE) (176 mg m^–2 (n=7)): 0 No. of patients (%)
Diarrhoea (any AE) (176 mg m^–2 (n=7)): 4 (57.1) No. of patients (%)
Dizziness (any AE) (176 mg m^–2 (n=7)): 0 No. of patients (%)
Fatigue (any AE) (176 mg m^–2 (n=7)): 4 (57.1) No. of patients (%)
Haemoglobin decreased (any AE) (176 mg m^–2 (n=7)): 0 No. of patients (%)
Hair disorder (any AE) (176 mg m^–2 (n=7)): 0 No. of patients (%)
Headache (any AE) (176 mg m^–2 (n=7)): 2 (28.6) No. of patients (%)
Herpes simplex infection (any AE) (176 mg m^–2 (n=7)): 1 (14.3) No. of patients (%)
Hypertension (any AE) (176 mg m^–2 (n=7)): 0 No. of patients (%)
LRTI (any AE) (176 mg m^–2 (n=7)): 2 (28.6) No. of patients (%)
Musculoskeletal chest pain (any AE) (176 mg m^–2 (n=7)): 1 (14.3) No. of patients (%)
Nausea (any AE) (176 mg m^–2 (n=7)): 0 No. of patients (%)
Oral herpes (any AE) (176 mg m^–2 (n=7)): 1 (14.3) No. of patients (%)
Rhinitis (any AE) (176 mg m^–2 (n=7)): 3 (42.9) No. of patients (%)
Serious AE (176 mg m^–2 (n=7)): 1 (14.3) No. of patients (%)
Treatment-related AE (176 mg m^–2 (n=7)): 5 (71.4) No. of patients (%)
Vomiting (any AE) (176 mg m^–2 (n=7)): 1 (14.3) No. of patients (%)
Dose-limiting toxicities (DLTs) (14–176 mg m^–2 iv once daily days 1–5 of 14-day cycle, first cycle): no dose-limiting toxicities; also recorded: no DLTs
Changes in haematological or biochemistry values, vital signs, body weight, ECG results (all doses): no clinically meaningful changes
Neurotoxicity and thrombocytopenia (all doses): no apparent neurotoxicity nor significant thrombocytopenia
Tolerability (all doses): safe and well tolerated
Treatment-related AEs ⩾grade 3 (all doses): rare
Total number of treatment-related AEs reported (all doses, all cycles): 127
Total number of AEs reported (all doses, all cycles, 27 patients): 282
AE: diarrhoea (all doses, all cycles, N=27): 48.1%
AE: fatigue (all doses, all cycles, N=27): 33.3%
AE: headache (all doses, all cycles, N=27): 40.7%
AE: rhinitis (all doses, all cycles, N=27): 40.7%
Patients reporting AEs (all doses, all cycles, N=27): 100%
Patients reporting treatment-related AEs (all doses, all cycles, N=27): 77.8%
Mean blood pressure (all patients during the study): no apparent dose-related increase
Maximum-tolerated dose (MTD) (doses up to 176 mg m^–2): not reached
Grade 3/4 AEs considered possibly treatment-related (lethargy (two episodes) and syncope, QT prolongation, neutrophil decrease): five events in three patients
Recommended phase II dose (RP2D) (once daily on days 1–5 every 2 weeks, highest dose tested): 176 mg m^–2
Treatment-related AE: diarrhoea (per patient, all doses, N=27): 33.3%
Treatment-related AE: dizziness (per patient, all doses, N=27): 7.4%
Treatment-related AE: fatigue (per patient, all doses, N=27): 29.6%
Treatment-related AE: headache (per patient, all doses, N=27): 25.9%
Treatment-related AE: nausea (per patient, all doses, N=27): 14.8%
Treatment-related AE: vomiting (per patient, all doses, N=27): 7.4%
Deaths during the study, relation to study medication (two patients, bronchopneumonia and lower respiratory tract infection): unrelated to study medication
